From PMC3281693 (The Journal of Biological Chemistry, 2011)

Columns and labels:
Rpm1-NBARC = target: T1, Rpm1-NBARC (Arabidopsis thaliana, UniProt Q39214); conditions: 100 μM ATP, 10 nM protein; MgCl2, pH 7.5
T1 sequence (Q39214 177-519): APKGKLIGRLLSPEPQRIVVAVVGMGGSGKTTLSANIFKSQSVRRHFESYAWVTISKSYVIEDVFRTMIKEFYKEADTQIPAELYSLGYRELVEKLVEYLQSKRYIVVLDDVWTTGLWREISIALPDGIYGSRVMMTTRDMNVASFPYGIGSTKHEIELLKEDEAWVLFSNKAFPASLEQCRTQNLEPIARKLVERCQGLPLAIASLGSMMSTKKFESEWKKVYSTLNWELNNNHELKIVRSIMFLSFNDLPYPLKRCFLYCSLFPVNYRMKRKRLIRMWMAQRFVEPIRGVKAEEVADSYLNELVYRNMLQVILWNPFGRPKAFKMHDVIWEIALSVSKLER

cross-linking = target: the molecule itself; assay: cross-linking

With Nc1ncnc2c1ncn2[C@@H]1O[C@H](COP(=O)(O)OP(=O)(O)OP(=O)(O)O)[C@@H](O)[C@H]1O [ATP] the “nucleotide phosphatase assay, HPLC” value (Rpm1-NBARC) was “Rpm1-NBARC catalyzed the production of Ado from ATP and ADP”.

B1: E. coli catabolite-activated protein (CAP) (natural protein, UniProt P0ACJ8 1-210, looked up)
chain: MVLGKPQTDPTLEWFLSHCHIHKYPSKSTLIHQGEKAETLYYIVKGSVAVLIKDEEGKEMILSYLNQGDFIGELGLFEEGQERSAWVRAKTACEVAEISYKKFRQLIQVNPDILMRLSAQMARRLQVTSEKVGNLAFLDVTGRIAQTLLNLAKQPDAMTHPDGMQIKITRQEIGQIVGCSRETVGRILKMLEDQNLISAHGKTIVVYGTR
In the case of B1, the “stoichiometry N” value (cross-linking) is reported as 2.
